Test results reported in publication PMC8752738, “A propolis-derived small molecule ameliorates metabolic syndrome in obese mice by targeting the CREB/CRTC2 transcriptional complex” (Nature Communications, 2022).
Values joined by “and” are separate entries in the source; they are usually repeats but may differ in a detail not shown here. Equal values may be shown once.

Tests used:
[1] = test system: mouse Lxra promoter; experiment: Truncated Lxra-LUC reporter in HEK293T; format: cell-based; details: for Relative luciferase reporter activity of mouse LXRa promotor deletion series, group mean (Mean 2) / Relative luciferase reporter activity of mouse LXRa promotor deletion series, group mean (Mean 1) / Relative luciferase reporter activity of mouse LXRa promotor deletion series: APC 10uM; for Relative luciferase reporter activity of mouse LXRa promotor deletion series: individual replicates
Protocol: Fig. 7 APC inhibits SREBP1 expression via the CRE-LXRα-LXRE axis. a Quantitative PCR analysis of hepatic expressions of Lxra, Ppra, Pprg, Rxra in DIO mice, which were continuously i.p. injected with control vehicle (VEH) or APC (20 mg/kg) with indicated doses one time daily for 5 weeks (n = 6 per group). One of two independent experiments is shown here. Data are represented as mean ± SEM. *P < 0.05; **P < 0.01; P values were determined by two-way ANOVA followed Bonferroni’s multiple comparisons test. b Immunoblotting analysis of hepatic LXRα and premature SREBP1 protein levels in the livers of DIO mice injected APC for 5 weeks as (a). One of three independent experiments is shown here (left). The relative protein of LXRα, SREBP1, and PPARα normalized by GAPDH is shown as a bar graph (right) (n = 3). Data are represented as mean ± SEM. *P < 0.05; **P < 0.01; P values were determined by two-way ANOVA followed Bonferroni’s multiple comparisons test. c CHIP analysis LXRa and RXRa recruited to the promoter of the mouse Srebf1 (top) gene in primary hepatocytes from wild C57 mice and pretreated APC (10 μM) for 1-h (bottom) (n = 4 per treatment). One of three independent experiments presented here. Data are represented as mean ± SEM. *P < 0.05; **P < 0.01; P values were determined by two-way ANOVA followed Bonferroni multiple comparisons test. d CHIP analysis of CREB and CRTC2 occupancy over the half CRE sites in the Lxra promoter (Top) in primary mouse hepatocytes overexpressing CRTC2, pretreated with APC (10 μM) for 1-h prior to 1-h glucagon stimulation (Gluc, 100 nM) (bottom) (n = 4 per treatment). One of three independent experiments presented here. Data are represented as mean ± SEM. *P < 0.05; **P < 0.01; P values were determined by two-way ANOVA followed Bonferroni’s multiple comparisons test. e Reporter activity of truncated Lxra-LUC reporter. The luciferase reporter was driven by mouse Lxra promoter (−1342) or truncations (−784 and −178) co-transfected with MYC-Creb and FLAG-Crtc2-S171A in HEK293T cells, and pretreated with APC prior to stimulation with FSK (10 nM) for 4-h (n = 3 per treatment). One of three independent experiments presented here. Data are represented as mean ± SEM. *P < 0.05; **P < 0.01; P values were determined by two-way ANOVA followed Bonferroni’s multiple comparisons test. f Quantitative PCR analysis of the expression of CRTC2, Lxra, Srebf-1c, and Srebf-2, in primary hepatocytes, which were infected by LV-Crtc2-S171A or control and incubated with APC (10 μM) for 8-h (n = 3 per treatment). One of three independent experiments presented here. Data are represented as mean ± SEM. *P < 0.05; **P < 0.01; P values were determined by two-way ANOVA followed Bonferroni’s multiple comparisons test. g Quantitative PCR analysis of Lxra gene expression in the liver of CRTC2-KO mice. Be induced by high-fat diet for 8 weeks, with Crtc2-KO mice and wild-type littermates administered VEH (vehicle control), MET (metformin, 200 mg/kg), or APC (20 mg/kg) for 3 weeks, followed by fasting 8-h before anesthesia (n = 5 per group). Data are represented as mean ± SEM. *P < 0.05; **P < 0.01; P values of Crtc2 gene were determined by unpaired two-tailed t test with Welch’s correction, and P values of Lxra gene were determined by two-way ANOVA followed Bonferroni’s multiple comparisons test. h Immunoblotting analysis of LXRα protein in the liver of these mice as in (g). One of two independent experiments is presented here (top), and the relative concentration of LXRα normalized to ACTIN is shown as a bar graph (bottom). (n = 5 mice per group, two technological repeats represent a composite pool). Data are represented as mean ± SEM. *P < 0.05; **P < 0.01; P values were determined by two-way ANOVA followed Bonferroni’s multiple comparison test. Source data for this figure are provided as source data file.

[2] = molecular target: CBP (Homo sapiens, UniProt Q92793); experiment: Acetyltransferase activity of CBP (H3K27ac immunoblot, HEK293 cells); format: cell-based; details: for relative H3K27ac level: Fig 3d replicates, HA-CBP +, TSA-0.5uM +
From the text: Fig. 3 APC inhibits CRTC2 interacting with CREB-ZIP and reduces acetyltransferase activity of CBP by binding with CREB protein directly. a Isothermal titration calorimetry (ITC) of HIS-CREB protein solution titrated into APC solution. The bottom solid line represents a nonlinear least-squares fitted by a single-site binding model. One of two independent experiments is shown here. b IC50 of APC inhibitory activity detected by CREB–CRTC2 two-hybrid assay in HEK293T cells (n = 3 per treatment, data are represented as mean ± SEM). One of three independent experiments is shown here. c Immunoprecipitation analysis of FLAG-CRTC2-WT recovered by anti-MYC antibody from HEK293 cells co-transfected with plasmids for a Myc-Creb-Zip fragment and the FLAG-Crtc2-Wt, stimulated by FSK (10 nM) for 2-h before harvest. APC (1–10 μM) was included in immunoprecipitation mixtures as indicated. Top represents one of three independent experiments, and the relative gray density of FLAG normalized to MYC in MYC-IP- factions is shown as a bar graph (bottom, n = 3). Data are represented as mean ± SEM; P values were determined by one-way ANOVA followed Dunnett’s multiple comparisons test. d Immunoblotting analysis of the acetyltransferase activity of CBP. The protein levels of H3K27ac and total Histone H3 were determined using specific antibodies from HEK293 cell lysate overexpressing HA-Cbp plasmid. […] The top represents one of three independent experiments, and the relative gray density of H3K27ac normalized to total Histone H3 in cell lysate is shown as a bar graph (bottom, n = 3). Data are represented as mean ± SEM; P values were determined by one-way ANOVA followed Dunnett’s multiple comparisons test. ns, P > 0.05; *P < 0.05; **P < 0.01. Sources data for this figure are provided as source data file.

CBP, sequence (Q92793 whole entry): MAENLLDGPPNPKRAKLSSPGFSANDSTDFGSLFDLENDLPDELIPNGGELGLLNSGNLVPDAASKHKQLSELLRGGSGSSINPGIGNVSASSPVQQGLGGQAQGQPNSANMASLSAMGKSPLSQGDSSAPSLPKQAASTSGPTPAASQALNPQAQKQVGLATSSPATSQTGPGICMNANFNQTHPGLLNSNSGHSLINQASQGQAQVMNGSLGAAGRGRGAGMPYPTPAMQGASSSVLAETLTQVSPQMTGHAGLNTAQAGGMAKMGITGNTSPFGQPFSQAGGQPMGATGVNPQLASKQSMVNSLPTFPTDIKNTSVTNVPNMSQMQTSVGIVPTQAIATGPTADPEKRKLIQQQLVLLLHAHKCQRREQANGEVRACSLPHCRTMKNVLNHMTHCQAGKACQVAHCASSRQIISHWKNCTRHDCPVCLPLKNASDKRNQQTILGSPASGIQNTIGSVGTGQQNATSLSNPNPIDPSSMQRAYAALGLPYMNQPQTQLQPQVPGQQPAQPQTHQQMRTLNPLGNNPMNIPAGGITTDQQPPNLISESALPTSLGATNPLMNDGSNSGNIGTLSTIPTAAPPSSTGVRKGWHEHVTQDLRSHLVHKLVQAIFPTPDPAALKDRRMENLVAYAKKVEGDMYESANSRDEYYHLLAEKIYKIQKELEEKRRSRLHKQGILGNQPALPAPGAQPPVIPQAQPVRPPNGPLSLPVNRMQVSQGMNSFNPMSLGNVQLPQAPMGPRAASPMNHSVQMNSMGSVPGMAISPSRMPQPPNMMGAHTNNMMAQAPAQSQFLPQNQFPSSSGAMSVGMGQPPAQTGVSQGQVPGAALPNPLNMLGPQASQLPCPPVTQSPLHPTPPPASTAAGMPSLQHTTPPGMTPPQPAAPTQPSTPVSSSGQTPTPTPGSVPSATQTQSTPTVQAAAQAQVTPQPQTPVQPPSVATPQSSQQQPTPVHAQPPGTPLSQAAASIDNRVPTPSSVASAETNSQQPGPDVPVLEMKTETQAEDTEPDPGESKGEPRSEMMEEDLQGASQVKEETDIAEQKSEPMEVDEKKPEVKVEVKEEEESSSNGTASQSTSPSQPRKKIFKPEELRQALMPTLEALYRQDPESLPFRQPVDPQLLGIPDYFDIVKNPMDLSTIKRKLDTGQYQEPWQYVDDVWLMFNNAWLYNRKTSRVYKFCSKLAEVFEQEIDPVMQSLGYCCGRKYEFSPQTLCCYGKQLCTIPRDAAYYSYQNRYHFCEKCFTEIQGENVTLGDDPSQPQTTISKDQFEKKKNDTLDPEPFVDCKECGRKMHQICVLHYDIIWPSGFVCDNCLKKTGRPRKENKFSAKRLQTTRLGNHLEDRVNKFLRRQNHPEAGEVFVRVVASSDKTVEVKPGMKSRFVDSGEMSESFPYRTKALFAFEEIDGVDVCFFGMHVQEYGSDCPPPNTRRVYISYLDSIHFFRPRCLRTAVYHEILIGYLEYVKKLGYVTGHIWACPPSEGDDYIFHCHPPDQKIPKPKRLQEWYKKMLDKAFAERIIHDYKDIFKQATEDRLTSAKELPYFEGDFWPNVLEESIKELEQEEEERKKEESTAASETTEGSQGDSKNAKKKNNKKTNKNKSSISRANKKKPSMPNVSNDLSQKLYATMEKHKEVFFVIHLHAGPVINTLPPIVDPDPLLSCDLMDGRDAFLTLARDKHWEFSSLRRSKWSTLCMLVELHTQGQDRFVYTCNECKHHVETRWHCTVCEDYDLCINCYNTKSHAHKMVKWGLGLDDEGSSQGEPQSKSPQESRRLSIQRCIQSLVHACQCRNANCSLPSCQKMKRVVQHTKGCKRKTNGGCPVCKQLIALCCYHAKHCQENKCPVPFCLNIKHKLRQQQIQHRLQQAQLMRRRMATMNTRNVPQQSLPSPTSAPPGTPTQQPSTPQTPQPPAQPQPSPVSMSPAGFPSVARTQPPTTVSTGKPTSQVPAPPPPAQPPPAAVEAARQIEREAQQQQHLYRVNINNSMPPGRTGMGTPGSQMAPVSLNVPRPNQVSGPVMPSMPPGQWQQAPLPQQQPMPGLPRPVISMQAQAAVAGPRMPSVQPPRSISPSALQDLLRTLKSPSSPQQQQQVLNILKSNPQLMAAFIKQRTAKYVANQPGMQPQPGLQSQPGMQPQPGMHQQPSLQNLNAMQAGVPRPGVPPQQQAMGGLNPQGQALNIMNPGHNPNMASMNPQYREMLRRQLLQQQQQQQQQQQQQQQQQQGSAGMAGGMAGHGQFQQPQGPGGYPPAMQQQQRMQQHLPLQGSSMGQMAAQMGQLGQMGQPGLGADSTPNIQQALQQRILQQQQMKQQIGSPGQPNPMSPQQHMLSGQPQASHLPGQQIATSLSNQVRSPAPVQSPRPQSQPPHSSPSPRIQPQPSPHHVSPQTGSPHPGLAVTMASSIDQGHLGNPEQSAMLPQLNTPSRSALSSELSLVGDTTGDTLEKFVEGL

For `CC(C)=CCc1cc(C=CC(=O)O)cc(CC=C(C)C)c1O` [APC, 3,5-diprenyl-4-hydroxycinnamic acid], the “Relative luciferase reporter activity of mouse LXRa promotor deletion series, group mean (Mean 2)” value (“Relative luciferase reporter activity … (Mean 2)” for short) ([1]; -178, CREB/CRTC2-S171A +, Ctrl (no FSK), mean of N=3) was 80.85, the “Relative luciferase reporter activity of mouse LXRa promotor deletion series, group mean (Mean 1)” value (shortened to “Relative luciferase reporter activity … (Mean 1)”) ([1]; -178, CREB/CRTC2-S171A +, FSK, mean of N=3) was 101.4 and the “Lxra-LUC reporter activity, Mean” value ([1]; -178 construct, Ctrl (no FSK), mean of N=3, -1342_Ctrl = 100) was 80.85. For the same compound, the “Lxra-LUC reporter activity, Mean” value ([1]; -178 construct, FSK, mean of N=3, -178_Ctrl with FSK = 80.5) was 101.4, the “Relative luciferase reporter activity … (Mean 2)” value ([1]; -784, CREB/CRTC2-S171A +, Ctrl (no FSK), mean of N=3) was 65.74 and the “Relative luciferase reporter activity … (Mean 1)” value ([1]; -784, CREB/CRTC2-S171A +, FSK, mean of N=3) was 80.88. The “Lxra-LUC reporter activity, Mean” value ([1]; -784 construct, Ctrl (no FSK), mean of N=3, -1342_Ctrl = 100) was 65.74, the “Lxra-LUC reporter activity, Mean” value ([1]; -784 construct, FSK, mean of N=3, -784_Ctrl with FSK = 84.79) was 80.88 and the “Relative luciferase reporter activity … (Mean 2)” value ([1]; -1342, CREB/CRTC2-S171A +, Ctrl (no FSK), mean of N=3) was 120.4. The “Relative luciferase reporter activity … (Mean 1)” value ([1]; -1342, CREB/CRTC2-S171A +, FSK, mean of N=3) was 140.5, the “Lxra-LUC reporter activity, Mean” value ([1]; -1342 construct, Ctrl (no FSK), mean of N=3, -1342_Ctrl = 100) was 120.4 and the “Lxra-LUC reporter activity, Mean” value ([1]; -1342 construct, FSK, mean of N=3, -1342_Ctrl with FSK = 265.7) was 140.5. For the same compound, the Lxrα-luc reporter activity ([1]; HEK293T, FSK, attenuated when half CRE site −984 deleted) was “inhibition of Lxrα-luc reporter activity”, the “Relative luciferase reporter activity of mouse LXRa promotor deletion series” value ([1]; mLXRa promoter region -178, CREB/CRTC2-S171A +, Ctrl (no FSK)) was 68.909 and the “Relative luciferase reporter activity of mouse LXRa promotor deletion series” value ([1]; mLXRa promoter region -178, CREB/CRTC2-S171A +, Ctrl (no FSK), unstimulated control) was 81.477 and 92.1755. The “Relative luciferase reporter activity of mouse LXRa promotor deletion series” value ([1]; mLXRa promoter region -178, CREB/CRTC2-S171A +, FSK, FSK stimulated) was 110.535 and 84.2634 and 109.449, the “Relative luciferase reporter activity of mouse LXRa promotor deletion series” value ([1]; mLXRa promoter region -784, CREB/CRTC2-S171A +, Ctrl (no FSK)) was 58.3809 and the “Relative luciferase reporter activity of mouse LXRa promotor deletion series” value ([1]; mLXRa promoter region -784, CREB/CRTC2-S171A +, Ctrl (no FSK), unstimulated control) was 73.0822 and 65.7554. The “Relative luciferase reporter activity of mouse LXRa promotor deletion series” value ([1]; mLXRa promoter region -784, CREB/CRTC2-S171A +, FSK, FSK stimulated) was 83.8052 and 88.4723 and 70.3736, the “Relative luciferase reporter activity of mouse LXRa promotor deletion series” value ([1]; mLXRa promoter region -1342, CREB/CRTC2-S171A +, Ctrl (no FSK)) was 97.1063 and the “Relative luciferase reporter activity of mouse LXRa promotor deletion series” value ([1]; mLXRa promoter region -1342, CREB/CRTC2-S171A +, Ctrl (no FSK), unstimulated control) was 135.223 and 128.99. The “Relative luciferase reporter activity of mouse LXRa promotor deletion series” value ([1]; mLXRa promoter region -1342, CREB/CRTC2-S171A +, FSK, FSK stimulated) was 139.251 and 135.05 and 147.302, the “relative H3K27ac level” value ([2]; APC 2 uM) was 1.193 and 1.187 and 1.293 and the “relative H3K27ac level” value ([2]; APC 5 uM) was 0.5384 and 0.3648 and 0.6529. For the same compound, the “acetylation level of H3K27ac induced by CBP” value ([2]; HEK293 cells overexpressing HA-Cbp) was “dose-dependently reduced”.
